pIC50: −log10 of the molar value. Where two headings read alike, the source gives them in different places. One block for each molecule: values may come before it.
Biological target: T1, human p38 kinase alpha (Homo sapiens, UniProt Q16539)
T1 construct: GST (N, cleaved yes); made in house; host or cells: E. coli DH10B
Test: p38 kinase in vitro assay, phosphorylation of biotinylated PHAS-I with 32P-ATP
Type: biochemical
Details: for pIC50: read-out: P38 alpha kinase IC50

[1] = in vitro P38-alpha kinase inhibition

T1 sequence (Q16539 whole entry): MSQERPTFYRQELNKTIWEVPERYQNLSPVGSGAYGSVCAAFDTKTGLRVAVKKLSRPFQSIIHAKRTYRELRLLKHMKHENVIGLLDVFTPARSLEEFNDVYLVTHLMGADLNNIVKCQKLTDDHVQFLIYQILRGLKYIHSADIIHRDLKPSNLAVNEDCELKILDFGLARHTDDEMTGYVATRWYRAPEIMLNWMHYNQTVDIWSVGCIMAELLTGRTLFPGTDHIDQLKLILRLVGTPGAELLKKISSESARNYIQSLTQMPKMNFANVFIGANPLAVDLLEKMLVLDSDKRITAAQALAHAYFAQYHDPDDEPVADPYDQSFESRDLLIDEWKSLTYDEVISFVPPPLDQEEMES

- pIC50 (in vitro P38-alpha kinase): 8.15
Structure (SMILES): O=C(NCCCc1[nH]nc(-c2ccc(F)cc2)c1-c1ccncc1)c1c(F)ccc(F)c1F [Example B-1332]

- pIC50 [1]: 5.97
Structure (SMILES): O=C(NCCc1[nH]nc(-c2ccc(F)cc2)c1-c1ccncc1)c1cccc(F)c1 [Example B-1145]

- P38 alpha kinase IC50, uM or % inhib @ conc. (uM): % inhib (@ 10.0 uM): 86.0% @
Structure (SMILES): Cc1c(-c2ccncc2)c(-c2ccc(F)cc2)nn1CC(=O)NCC(=O)Nc1ccccc1 [Example B-2441]

- pIC50 (in vitro P38-alpha kinase): 8.40
Structure (SMILES): O=C(NCCCc1[nH]nc(-c2ccc(F)cc2)c1-c1ccncc1)c1cc(F)cc(F)c1 [Example B-1331]

- pIC50 [1]: 6.42
Structure (SMILES): Cc1cc(C)c(C(=O)NCCc2[nH]nc(-c3ccc(F)cc3)c2-c2ccncc2)c(C)c1 [Example B-1133]

- pIC50 (in vitro P38-alpha kinase): 5.80
Structure (SMILES): CCCOC(=O)N1CCC(c2[nH]nc(-c3ccc(F)cc3)c2-c2ccncc2)CC1 [Example B-1423]

- pIC50 (in vitro P38-alpha kinase): 6.59
Structure (SMILES): Cc1c(-c2ccncc2)c(-c2ccc(F)cc2)nn1CC(=O)NCc1ccccc1Cl [Example B-2274]

- P38 alpha kinase IC50, uM or % inhib @ conc. (uM): % inhib (@ 10.0 uM): 82.0% @
Structure (SMILES): Cc1c(-c2ccncc2)c(-c2ccc(F)cc2)nn1CC(=O)Nc1ccc(OCc2ccccc2)cc1 [Example B-2437]

- P38 alpha kinase IC50, uM or % inhib @ conc. (uM): % inhib (@ 10.0 uM): 87.0% @
Structure (SMILES): Cc1c(-c2ccncc2)c(-c2ccc(F)cc2)nn1CC(=O)Nc1ccc(C2CCCCC2)cc1 [Example B-2427]

- P38 alpha kinase % inhib @ conc. (@ 10.0 uM): 76.0% @
Structure (SMILES): COC(=O)[C@H](COCc1ccccc1)NC(=O)Cn1nc(-c2ccc(F)cc2)c(-c2ccncc2)c1C [Example B-2359]

- pIC50 (in vitro P38-alpha kinase): 5.70
Structure (SMILES): O=S(=O)(c1ccc(Cl)s1)N1CCC(c2[nH]nc(-c3ccc(F)cc3)c2-c2ccncc2)CC1 [Example B-1438]

- pIC50 (in vitro P38-alpha kinase): 5.60
Structure (SMILES): O=S(=O)(c1ccc(OC(F)(F)F)cc1)N1CCC(c2[nH]nc(-c3ccc(F)cc3)c2-c2ccncc2)CC1 [Example B-1477]

- pIC50 [1]: 5.97
Structure (SMILES): O=C(NCCc1[nH]nc(-c2ccc(F)cc2)c1-c1ccncc1)c1ccc(F)c(F)c1 [Example B-1129]

- P38 alpha kinase % inhib @ conc. (@ 1.0 uM): 88.0% @
Structure (SMILES): CCCNC(=O)NCCCc1[nH]nc(-c2ccc(F)cc2)c1-c1ccncc1 [Example B-1218]

- pIC50 (in vitro P38-alpha kinase): > 7.00
Structure (SMILES): O=C(c1ccc(C(F)(F)F)cc1)N1CCC(c2[nH]nc(-c3ccc(F)cc3)c2-c2ccncc2)CC1 [Example B-1390]

- pIC50 [1]: > 7.00
Structure (SMILES): Cc1ccccc1S(=O)(=O)NCCc1[nH]nc(-c2ccc(F)cc2)c1-c1ccncc1 [Example B-1097]

Further lines, the molecule ahead of its results:

Structure (SMILES): O=C(COCc1ccccc1)NCc1[nH]nc(-c2ccc(F)cc2)c1-c1ccncc1 [Example B-0006]
- inhibition at 1 µM (@ 1.0 uM, read-out: P38 alpha kinase % inhib @ conc.): 82%

Structure (SMILES): CNC(=O)CCC(NS(C)(=O)=O)c1[nH]nc(-c2ccc(F)cc2)c1-c1ccncc1 (centres unmarked) [Example B-0878]
- pIC50 [1]: 6.19

Structure (SMILES): CC(NC(=O)NCCc1ccccc1)c1[nH]nc(-c2ccc(F)cc2)c1-c1ccncc1 (centres unmarked) [Example B-0593]
- pIC50 [1]: 5.91

Structure (SMILES): Cc1cccc(Cl)c1S(=O)(=O)NCCc1[nH]nc(-c2ccc(F)cc2)c1-c1ccncc1 [Example B-1095]
- pIC50 [1]: > 7.00

Structure (SMILES): CCCNC(=O)NCCc1[nH]nc(-c2ccc(F)cc2)c1-c1ccncc1 [Example B-1041]
- P38 alpha kinase % inhib @ conc. (uM) (@ 1.0 uM): 70.0% @

Structure (SMILES): CC(NS(=O)(=O)c1ccc(F)cc1F)c1[nH]nc(-c2ccc(F)cc2)c1-c1ccncc1 (centres unmarked) [Example B-0567]
- pIC50 [1]: 6.85

Structure (SMILES): CCCCS(=O)(=O)NC(C)c1[nH]nc(-c2ccc(F)cc2)c1-c1ccncc1 (centres unmarked) [Example B-0571]
- pIC50 [1]: 6.42

Structure (SMILES): CC(NC(=O)c1ccncc1)c1[nH]nc(-c2ccc(F)cc2)c1-c1ccncc1 (centres unmarked) [Example B-0555]
- pIC50 [1]: 5.73

Structure (SMILES): CCCCS(=O)(=O)NCCc1[nH]nc(-c2ccc(F)cc2)c1-c1ccncc1 [Example B-1022]
- P38 alpha kinase % inhib @ conc. (uM) (@ 1.0 uM): 84.0% @

Structure (SMILES): O=C(Cc1cccs1)NCCc1[nH]nc(-c2ccc(F)cc2)c1-c1ccncc1 [Example B-1051]
- P38 alpha kinase % inhib @ conc. (uM) (@ 1.0 uM): 68.0% @

Structure (SMILES): Cc1ccc(S(=O)(=O)NC(Cc2ccccc2)C(=O)NCCc2[nH]nc(-c3ccc(F)cc3)c2-c2ccncc2)cc1 (centres unmarked) [Example B-1011]
- P38 alpha kinase % inhib @ conc. (uM) (@ 1.0 uM): 72.0% 2

Structure (SMILES): O=S(=O)(NCCc1[nH]nc(-c2ccc(F)cc2)c1-c1ccncc1)c1ccc(F)cc1Cl [Example B-1077]
- pIC50 [1]: > 7.00

Structure (SMILES): CC(NC(=O)NC(Cc1ccccc1)c1[nH]nc(-c2ccc(F)cc2)c1-c1ccncc1)c1ccccc1 (centres unmarked) [Example B-0739]
- pIC50 [1]: 5.39

Reference: patent publication US6979686B1, “Substituted pyrazoles as p38 kinase inhibitors” (Pharmacia Corporation, priority 2001, dated 2005)
